Test results as given in the supplement of paper PMC10307832.

What follows are cell lines tested with COc1cc(Nc2ncc(F)c(Nc3ccc4c(n3)NC(=O)C(C)(C)O4)n2)cc(OC)c1OC [R406] + COc1cc2c(Oc3ccc(NC(=O)C4(C(=O)Nc5ccc(F)cc5)CC4)cc3F)ccnc2cc1OCCCN1CCOCC1 [Foretinib] (partner 0.25 µM) (assay: relative viability (nuclei count vs DMSO), 5 days (fraction); higher = more cells survive). Details: first compound 0.08 µM.
Summary of the method: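 Five library-drug doses in √10 steps were combined with a fixed anchor-drug dose, or a single drug was given alone, by pin tool to lung cancer cell lines in 1536-well plates the day after seeding. Nuclei were stained and counted after 5 days. Relative viability is the nuclei count in treated wells over that in vehicle wells, taken as the median of duplicate plates.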
For NCI-H2228, the relative viability was 0.798. With NCI-H2023 the relative viability was 0.905. In the case of NCI-H1623, the relative viability is reported as 0.931. For NCI-H1563, the relative viability was 0.777. SK-LU-1 showed a relative viability of 0.708. With NCI-H661 the relative viability was 0.895.

Same assay, conditions: first compound 0.253 µM
For NCI-H2342, the relative viability was 1.21. Cell Line NCI-H838 has a relative viability of 1.17. Cell Line NCI-H1650 has a relative viability of 1.23. With EBC-1 the relative viability was 0.107. Work on NCI-H1703 yielded a relative viability of 0.327. NCI-H1993 gave a relative viability of 0.756. Cell Line NCI-H441 has a relative viability of 1.13. PC-14 gave a relative viability of 0.941. Work on LCLC-103H yielded a relative viability of 0.734. With NCI-H596 the relative viability was 1. For NCI-H2126, the relative viability was 0.824. With EMC-BAC-2 the relative viability was 1.05. Cell Line NCI-H2085 has a relative viability of 1.08. In the case of Calu-6, the relative viability is reported as 0.927. HCC-366 was tested, and the relative viability was 0.933. In the case of NCI-H1666, the relative viability is reported as 1.07. In the case of NCI-H647, the relative viability is reported as 1.2. Work on LK-2 yielded a relative viability of 1.45. NCI-H2087 gave a relative viability of 1.05. In the case of NCI-H358, the relative viability is reported as 0.795. NCI-H2170 gave a relative viability of 1.11. COR-L23 showed a relative viability of 1.18. COR-L 105 was tested, and the relative viability was 1.4. Cell Line IA-LM has a relative viability of 1.43. Cell Line ChaGo-K-1 has a relative viability of 1.07. A549 gave a relative viability of 1. Work on SK-MES-1 yielded a relative viability of 0.921. Cell Line SW 900 has a relative viability of 0.779. NCI-H2009 was tested, and the relative viability was 1.35. With NCI-H520 the relative viability was 1. SW 1573 showed a relative viability of 0.915. NCI-H1299 showed a relative viability of 1.14. NCI-H2228 gave a relative viability of 1.01. NCI-H2023 showed a relative viability of 0.703. With NCI-H1623 the relative viability was 0.952. NCI-H1563 was tested, and the relative viability was 1. Cell Line SK-LU-1 has a relative viability of 0.816. Cell Line NCI-H661 has a relative viability of 1.04.

Same assay, conditions: first compound 0.8 µM
Work on NCI-H2342 yielded a relative viability of 1.22. Work on NCI-H838 yielded a relative viability of 1.09. Work on NCI-H1650 yielded a relative viability of 1. EBC-1 gave a relative viability of 0.0997. NCI-H1703 gave a relative viability of 0.323. NCI-H1993 was tested, and the relative viability was 0.846. NCI-H441 gave a relative viability of 1.18. Cell Line PC-14 has a relative viability of 0.97. Cell Line LCLC-103H has a relative viability of 0.879. With NCI-H596 the relative viability was 0.957. NCI-H2126 gave a relative viability of 1.26. In the case of EMC-BAC-2, the relative viability is reported as 1.11. NCI-H2085 showed a relative viability of 0.973. With Calu-6 the relative viability was 0.924. HCC-366 was tested, and the relative viability was 0.956. In the case of NCI-H1666, the relative viability is reported as 0.977. With NCI-H647 the relative viability was 1.15. LK-2 gave a relative viability of 1.1. Cell Line NCI-H2087 has a relative viability of 1.04. Cell Line NCI-H358 has a relative viability of 0.886. NCI-H2170 was tested, and the relative viability was 1. Cell Line H3255 has a relative viability of 0.872. COR-L23 showed a relative viability of 1.12. COR-L 105 showed a relative viability of 1.34. Work on IA-LM yielded a relative viability of 0.958. For ChaGo-K-1, the relative viability was 1.09. A549 was tested, and the relative viability was 0.94. SK-MES-1 gave a relative viability of 0.976. SW 900 showed a relative viability of 0.915. NCI-H2009 gave a relative viability of 1.17. NCI-H520 showed a relative viability of 0.883. Cell Line SW 1573 has a relative viability of 0.887. Cell Line NCI-H1299 has a relative viability of 1.07. With NCI-H2228 the relative viability was 0.972. NCI-H2023 showed a relative viability of 0.768. NCI-H1623 was tested, and the relative viability was 0.962. With NCI-H1563 the relative viability was 0.939. SK-LU-1 gave a relative viability of 0.992. In the case of NCI-H661, the relative viability is reported as 0.988.

Same assay, conditions: first compound 2.53 µM
NCI-H2342 gave a relative viability of 0.863. In the case of NCI-H838, the relative viability is reported as 0.645. NCI-H1650 was tested, and the relative viability was 0.723. EBC-1 gave a relative viability of 0.118. NCI-H1703 was tested, and the relative viability was 0.228. NCI-H1993 showed a relative viability of 0.642. In the case of NCI-H441, the relative viability is reported as 0.718. PC-14 showed a relative viability of 0.875. Work on LCLC-103H yielded a relative viability of 0.529. In the case of NCI-H596, the relative viability is reported as 0.726. For NCI-H2126, the relative viability was 1.04. In the case of EMC-BAC-2, the relative viability is reported as 0.385. Cell Line NCI-H2085 has a relative viability of 0.912. Calu-6 showed a relative viability of 0.687. Work on HCC-366 yielded a relative viability of 0.847. Cell Line NCI-H1666 has a relative viability of 0.869. NCI-H647 gave a relative viability of 0.917. Work on LK-2 yielded a relative viability of 0.888. For NCI-H358, the relative viability was 0.335. Cell Line NCI-H2170 has a relative viability of 0.916. For H3255, the relative viability was 0.878. COR-L23 was tested, and the relative viability was 0.931. COR-L 105 was tested, and the relative viability was 1.1. IA-LM was tested, and the relative viability was 1.36. For ChaGo-K-1, the relative viability was 0.771. With A549 the relative viability was 0.959. SK-MES-1 was tested, and the relative viability was 0.49. SW 900 was tested, and the relative viability was 0.754. With NCI-H2009 the relative viability was 1.27. In the case of NCI-H520, the relative viability is reported as 0.293. Cell Line SW 1573 has a relative viability of 0.932. Cell Line NCI-H1299 has a relative viability of 1.2. With NCI-H2228 the relative viability was 0.567. For NCI-H2023, the relative viability was 0.896. With NCI-H1623 the relative viability was 0.806. NCI-H1563 showed a relative viability of 0.82. SK-LU-1 gave a relative viability of 0.439. Work on NCI-H661 yielded a relative viability of 1.

Same assay, conditions: first compound 8 µM
NCI-H2342 gave a relative viability of 0.88. In the case of NCI-H838, the relative viability is reported as 0.791. With NCI-H1650 the relative viability was 0.117. With EBC-1 the relative viability was 0.122. NCI-H1703 gave a relative viability of 0.218. For NCI-H1993, the relative viability was 0.577. NCI-H441 was tested, and the relative viability was 0.406. PC-14 gave a relative viability of 0.635. LCLC-103H showed a relative viability of 0.146. NCI-H596 was tested, and the relative viability was 0.162. NCI-H2126 showed a relative viability of 1. Cell Line EMC-BAC-2 has a relative viability of 0.579. For NCI-H2085, the relative viability was 0.289. Calu-6 was tested, and the relative viability was 0.553. Cell Line HCC-366 has a relative viability of 0.137. NCI-H1666 showed a relative viability of 0.59. NCI-H647 showed a relative viability of 1.05. LK-2 showed a relative viability of 0.344. NCI-H2087 showed a relative viability of 0.609. NCI-H358 gave a relative viability of 0.156. NCI-H2170 showed a relative viability of 0.814. For H3255, the relative viability was 0.673. In the case of COR-L23, the relative viability is reported as 0.665. In the case of COR-L 105, the relative viability is reported as 0.504. IA-LM gave a relative viability of 1.02. For ChaGo-K-1, the relative viability was 0.531. Work on A549 yielded a relative viability of 0.396. In the case of SK-MES-1, the relative viability is reported as 0.396. For SW 900, the relative viability was 0.519. For NCI-H2009, the relative viability was 0.368. Cell Line NCI-H520 has a relative viability of 0.421. SW 1573 was tested, and the relative viability was 0.665. NCI-H1299 was tested, and the relative viability was 1.02. NCI-H2228 showed a relative viability of 0.337. NCI-H2023 was tested, and the relative viability was 0.368. Cell Line NCI-H1623 has a relative viability of 0.849. For NCI-H1563, the relative viability was 0.624.
